Data as given in patent publication US20050074879A1, “Antisense oligonucleotide modulation of STAT3 expression” (priority 2000, published 2005).
Oligonucleotides are written 5' to 3', each unit as a sugar letter and its base; * is a phosphorothioate linkage, no mark a phosphodiester; rarer units and linkages stand in square brackets, end groups in braces. Plain capitals give the bases only. e = 2'-O-(2-methoxyethyl) (MOE); [5mC] = 5-methylcytosine; d = 2'-deoxy (DNA)

The substances below were run on Human STAT3 mRNA (assay: Inhibition of human STAT3 mRNA levels in A549 cells, 75 nM, real-time PCR (Table 13)). Conditions: 75 nM oligonucleotide with LIPOFECTIN, real-time PCR PPS 199, percent inhibition relative to untreated control cells, average of 2 experiments.
Format: cell-based
Procedure: Oligonucleotide activity is assayed by quantitation of STAT3 mRNA levels by real-time PCR (RT-PCR) using the ABI PRISMS 7700 Sequence Detection System (PE-Applied Biosystems, Foster City, Calif.) according to manufacturer's instructions. This is a closed-tube, non-gel-based, fluorescence detection system which allows high-throughput quantitation of polymerase chain reaction (PCR) products in real-time. As opposed to standard PCR, in which amplification products are quantitated after the PCR is completed, products in RT-PCR are quantitated as they accumulate. This is accomplished by including in the PCR reaction an oligonucleotide probe that anneals specifically between the forward and reverse PCR primers, and contains two fluorescent dyes. A reporter dye (e.g., JOE or FAM, PE-Applied Biosystems, Foster City, Calif.) is attached to the 5′ end of the probe and a quencher dye (e.g., TAMRA, PE-Applied Biosystems, Foster City, Calif.) is attached to the 3′ end of the probe. When the probe and dyes are intact, reporter dye emission is quenched by the proximity of the 3′ quencher dye. During amplification, annealing of the probe to the target sequence creates a substrate that can be cleaved by the 5′-exonuclease activity of Taq polymerase. […] With each cycle, additional reporter dye molecules are cleaved from their respective probes, and the fluorescence intensity is monitored at regular (six-second) intervals by laser optics built into the ABI PRISM™ 7700 Sequence Detection System. In each assay, a series of parallel reactions containing serial dilutions of mRNA from untreated control samples generates a standard curve that is used to quantitate the percent inhibition after antisense oligonucleotide treatment of test samples.
RT-PCR reagents are obtained from PE-Applied Biosystems, Foster City, Calif. RT-PCR reactions are carried out by adding 25 l PCR cocktail (1× TAQMAN7 buffer A, 5.5 mM MgCl2, 300 µM each of DATP, dCTP and dGTP, 600 µM of dUTP, 100 nM each of forward primer, reverse primer, and probe, 20 U RNAse inhibitor, 1.25 units AMPLITAQ GOLD7, and 12.5 U MuLV reverse transcriptase) to 96 well plates containing 25 l poly(A) mRNA solution. The RT reaction is carried out by incubation for 30 minutes at 48° C. following a 10 minute incubation at 95° C. to activate the AMPLITAQ GOLD7, 40 cycles of a two-step PCR protocol are carried out: 95° C. for 15 seconds (denaturation) followed by 60° C. for 1.5 minutes (annealing/extension).
The compounds were analyzed for their effect on STAT3 mRNA levels in A549 cells. The human lung carcinoma cell line A549 was obtained from the American Type Culture Collection (ATCC) (Manassas, Va.). A549 cells were routinely cultured in DMEM basal media (Invitrogen Corporation, Carlsbad, Calif.) supplemented with 10% fetal calf serum (Invitrogen Corporation, Carlsbad, Calif.), 100 units/mL penicillin, and 100 ug/mL streptomycin (Invitrogen Corporation, Carlsbad, Calif.). Cells were routinely passaged by trypsinization and dilution when they reached 90% confluence.
When cells reached 65-75% confluency, they were treated with oligonucleotide. For cells grown in 96-well plates, wells were washed once with […] OPTI-MEM-1 reduced-serum medium (Invitrogen Corporation, Carlsbad, Calif.) and then treated with 130 µL of OPTI-MEM-1 containing […] LIPOFECTIN (Invitrogen Corporation, Carlsbad, Calif.) and 75 nM of the compounds in Table 13. Cells were treated and data were obtained in duplicate. Untreated cells served as controls. After 4-7 hours of treatment at 37° C., the medium was replaced with fresh medium. Cells were harvested 16-24 hours after oligonucleotide treatment. STAT3 mRNA levels in A549 cells were quantitated by real-time PCR as described by other methods herein.
Probes and primers to human STAT3 were designed to hybridize to a human STAT3 sequence, using published sequence information (incorporated herein as SEQ ID NO: 1). For STAT 3 the PCR primers were: • forward primer: […]

Row | Substance | % Inhib (inhibition of human STAT 3 mRNA levels) [%]
1 | 337334 (antisense e[5mC]*e[5mC]*e[5mC]*eA*eG*dA*dA*dG*dG*dA*dG*dA*dA*dG*d[5mC]*e[5mC]*e[5mC]*eT*eT*eG) [compound 337334] | 85
2 | 337354 (antisense eT*eG*e[5mC]*eA*eG*dG*dT*d[5mC]*dG*dT*dT*dG*dG*dT*dG*eT*e[5mC]*eA*e[5mC]*eA) [compound 337354] | 62
3 | 337299 (antisense eT*e[5mC]*eT*eG*eA*dA*dG*dT*dT*dG*dA*dG*dA*dT*dT*e[5mC]*eT*eG*e[5mC]*eT) [compound 337299] | 80
4 | 337295 (antisense eT*eG*e[5mC]*e[5mC]*eG*d[5mC]*d[5mC]*dT*d[5mC]*dT*dT*d[5mC]*d[5mC]*dA*dG*eT*e[5mC]*eA*eG*e[5mC]) [compound 337295] | 82
5 | 337350 (antisense eG*eA*e[5mC]*eA*eA*dT*dA*d[5mC]*dT*dT*dT*d[5mC]*d[5mC]*dG*dA*eA*eT*eG*e[5mC]*e[5mC]) [compound 337350] | 84
6 | 337300 (antisense e[5mC]*e[5mC]*eT*eT*eT*dG*dT*dA*dG*dG*dA*dA*dA*d[5mC]*dT*eT*eT*eT*eT*eG) [compound 337300] | 23
7 | 337379 (antisense eG*eT*eA*eT*eG*dT*dA*dG*d[5mC]*dT*dA*dT*dA*dG*dG*eT*eG*eG*e[5mC]*e[5mC]) [compound 337379] | 71
8 | 337278 (antisense eA*eA*eT*e[5mC]*eA*dA*dA*dG*dT*d[5mC]*dA*dT*d[5mC]*d[5mC]*dT*eG*eG*eA*eG*eA) [compound 337278] | 69
9 | 337378 (antisense eA*eG*eG*eT*eG*dG*d[5mC]*d[5mC]*dT*dG*dT*dG*dG*d[5mC]*dA*eT*eT*eT*eG*e[5mC]) [compound 337378] | 16
10 | 337355 (antisense eA*eT*eT*eG*e[5mC]*dT*dG*d[5mC]*dA*dG*dG*dT*d[5mC]*dG*dT*eT*eG*eG*eT*eG) [compound 337355] | 61
11 | 337357 (antisense eG*eG*eT*e[5mC]*eA*dA*dT*dG*dG*dT*dA*dT*dT*dG*d[5mC]*eT*eG*e[5mC]*eA*eG) [compound 337357] | 71
12 | 337261 (antisense eT*eG*eT*e[5mC]*eA*dA*dG*d[5mC]*dT*dG*d[5mC]*dT*dG*dT*dA*eG*e[5mC]*eT*eG*eA) [compound 337261] | 79
13 | 337313 (antisense eA*eG*eG*eT*eG*dA*dT*d[5mC]*dA*dG*dG*dT*dG*d[5mC]*dA*eG*e[5mC]*eT*e[5mC]*e[5mC]) [compound 337313] | 61
14 | 337349 (antisense eT*eA*e[5mC]*eT*eT*dT*d[5mC]*d[5mC]*dG*dA*dA*dT*dG*d[5mC]*d[5mC]*eT*e[5mC]*e[5mC]*eT*e[5mC]) [compound 337349] | 65
15 | 337260 (antisense e[5mC]*e[5mC]*eA*eT*eT*dG*dG*dG*d[5mC]*d[5mC]*dA*dT*d[5mC]*d[5mC]*dT*eG*e[5mC]*eT*eA*eA) [compound 337260] | 62
16 | 337317 (antisense e[5mC]*eT*eA*eG*eG*dT*d[5mC]*dA*dA*dT*d[5mC]*dT*dT*dG*dA*eG*eG*e[5mC]*e[5mC]*eT) [compound 337317] | 55
17 | 337336 (antisense eT*e[5mC]*eT*eT*eT*dG*d[5mC]*dT*dG*d[5mC]*dT*dT*dT*d[5mC]*dA*e[5mC]*eT*eG*eA*eA) [compound 337336] | 79

Row | Substance | % Inhib (inhibition of human STAT 3 mRNA levels) [%]
18 | 337347 (antisense eG*e[5mC]*e[5mC]*eT*e[5mC]*d[5mC]*dT*d[5mC]*d[5mC]*dT*dT*dG*dG*dG*dA*eA*eT*eG*eT*e[5mC]) [compound 337347] | 88
19 | 337275 (antisense eT*eT*e[5mC]*eT*eG*dT*dT*d[5mC]*dT*dA*dG*dA*dT*d[5mC]*d[5mC]*eT*eG*e[5mC]*eA*e[5mC]) [compound 337275] | 82
20 | 337312 (antisense eA*eT*e[5mC]*eA*eG*dG*dT*dG*d[5mC]*dA*dG*d[5mC]*dT*d[5mC]*d[5mC]*eT*e[5mC]*eA*eG*eT) [compound 337312] | 78
21 | 337343 (antisense eT*eG*eA*eT*e[5mC]*dT*dT*dA*dT*dA*dG*d[5mC]*d[5mC]*d[5mC]*dA*eT*eG*eA*eT*eG) [compound 337343] | 84
22 | 337253 (antisense eA*eA*eA*eT*eG*d[5mC]*dG*dG*dA*d[5mC]*d[5mC]*d[5mC]*dA*dA*dG*eA*eG*eT*eT*eT) [compound 337253] | 49
23 | 337366 (antisense eA*eG*eA*eT*eA*dG*d[5mC]*dA*dG*dA*dA*dG*dT*dA*dG*eG*eA*eG*eA*eT) [compound 337366] | 66
24 | 337315 (antisense eG*eA*eG*eG*e[5mC]*d[5mC]*dT*dT*dG*dG*dT*dG*dA*dT*dA*e[5mC]*eA*e[5mC]*e[5mC]*eT) [compound 337315] | 46
25 | 337292 (antisense eT*eT*e[5mC]*eT*eG*d[5mC]*dA*d[5mC]*dG*dT*dA*d[5mC]*dT*d[5mC]*d[5mC]*eA*eT*e[5mC]*eG*e[5mC]) [compound 337292] | 81
26 | 337265 (antisense e[5mC]*eG*eA*e[5mC]*eT*d[5mC]*dT*dT*dG*d[5mC]*dA*dG*dG*dA*dA*eG*e[5mC]*eG*eG*e[5mC]) [compound 337265] | 92
27 | 337337 (antisense eA*eT*eG*eT*eT*dG*dT*dT*d[5mC]*dA*dG*d[5mC]*dT*dG*d[5mC]*eT*eG*e[5mC]*eT*eT) [compound 337337] | 76
28 | 337285 (antisense e[5mC]*eA*eT*eG*eT*d[5mC]*dT*d[5mC]*d[5mC]*dT*dT*dG*dA*d[5mC]*dT*e[5mC]*eT*eT*eG*eA) [compound 337285] | 78
29 | 337248 (antisense eT*eA*eT*eT*eG*dA*dA*dA*dA*dT*dT*dA*dT*d[5mC]*dT*eA*eA*eT*eT*e[5mC]) [compound 337248] | 0
30 | 337325 (antisense eT*eT*e[5mC]*eT*eT*dG*dG*dG*dA*dT*dT*dG*dT*dT*dG*eG*eT*e[5mC]*eA*eG) [compound 337325] | 75
31 | 337301 (antisense eA*eG*eG*e[5mC]*eA*d[5mC]*dT*dT*dT*dT*d[5mC]*dA*dT*dT*dA*eA*eG*eT*eT*eT) [compound 337301] | 73
32 | 337289 (antisense eT*e[5mC]*e[5mC]*eA*eG*d[5mC]*dT*dG*d[5mC]*dT*dG*d[5mC]*dA*dT*d[5mC]*eT*eT*e[5mC]*eT*eG) [compound 337289] | 83
33 | 337322 (antisense eT*e[5mC]*eT*eG*eA*d[5mC]*dA*dG*dA*dT*dG*dT*dT*dG*dG*eA*eG*eA*eT*e[5mC]) [compound 337322] | 69
34 | 337369 (antisense e[5mC]*eA*eG*eA*eT*d[5mC]*dA*d[5mC]*d[5mC]*d[5mC]*dA*d[5mC]*dA*dT*dT*e[5mC]*eA*e[5mC]*eT*e[5mC]) [compound 337369] | 88
